One compound from ChEMBL document CHEMBL5726785, “TrkA kinase inhibitors, compositions and methods thereof” (2018) can be followed below.

The IC50 is the concentration that gives 50% inhibition. A higher IC50 goes with weaker potency.

For the test, the target named is High affinity nerve growth factor receptor (Homo sapiens, UniProt P04629). Put plainly: TrkA Receptor : TrkA functional activity was measured using a DiscoverX PathHunter assay. In this assay, U2OS cells are express TrkA receptor as a fusion with the weakly complementing fragment of B-galactosidase, which DiscoverX calls “Prolink (PK)”; additionally, Shc1 is fused with a larger fragment, which is called “Enzyme Acceptor (EA)”. Activation of the TrkA receptor, upon NGF addition, results in the kinase domain being phosphorylated, resulting in subsequent recruitment of Shc1-EA protein. That recruitment results in an active B-galactosidase enzyme that is detected by addition of a chemiluminescent substrate.All reagents were purchased from DiscoverX, except for the receptor agonists (NGF, BDNF, NT3) which were purchased from Peprotech. Cells were expanded and frozen into cryovials (TrkA p75 @ passage 13, 1.5×10^7 cells/vial; TrkC p75 @ passage 11, 1.5×10^7 cells/vial in InVitrogen Recovery Cell Freezing media), and stored in the vapor phase of liquid nitrogen, and thawed immediately before use. Thawed cells were added to a 384-well plate (BD Falcon 384-well white/clear, TC surface 120 uL assay plates (353963), 20 uL of 0.375e6 cells/mL=>7500 cells/well), and allowed to incubate overnight. […].
High affinity nerve growth factor receptor, sequence (P04629 whole entry, the tested form may be a part): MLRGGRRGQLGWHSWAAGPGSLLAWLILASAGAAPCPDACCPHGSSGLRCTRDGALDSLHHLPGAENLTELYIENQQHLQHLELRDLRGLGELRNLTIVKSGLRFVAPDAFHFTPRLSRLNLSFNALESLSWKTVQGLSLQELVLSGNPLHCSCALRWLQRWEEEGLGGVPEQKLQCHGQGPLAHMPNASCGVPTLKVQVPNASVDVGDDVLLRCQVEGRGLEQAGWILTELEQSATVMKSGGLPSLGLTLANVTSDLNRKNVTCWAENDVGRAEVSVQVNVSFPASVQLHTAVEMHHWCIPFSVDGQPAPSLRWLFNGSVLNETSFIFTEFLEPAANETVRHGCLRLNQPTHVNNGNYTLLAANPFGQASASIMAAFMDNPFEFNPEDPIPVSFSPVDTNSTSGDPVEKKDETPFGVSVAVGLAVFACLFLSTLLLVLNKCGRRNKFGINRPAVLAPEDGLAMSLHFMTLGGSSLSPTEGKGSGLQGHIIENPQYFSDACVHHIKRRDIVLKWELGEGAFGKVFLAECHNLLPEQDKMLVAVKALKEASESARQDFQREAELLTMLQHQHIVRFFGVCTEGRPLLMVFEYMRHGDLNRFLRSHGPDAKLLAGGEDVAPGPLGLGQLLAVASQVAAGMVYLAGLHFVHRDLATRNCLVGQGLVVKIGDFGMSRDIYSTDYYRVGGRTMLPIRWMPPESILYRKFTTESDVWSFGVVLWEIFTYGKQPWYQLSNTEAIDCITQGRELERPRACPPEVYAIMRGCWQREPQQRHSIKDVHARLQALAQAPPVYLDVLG

Compound `Cc1ncc(NC(=O)Nc2c(-c3ccccc3)[nH]c3ccccc23)c(-c2ccccc2)n1` displayed a 50% inhibitory concentration (IC50) of 570 nM.
